Experimental findings from ChEMBL document CHEMBL3046757, “Design, synthesis, and biological evaluation of novel pyridine acid esters of podophyllotoxin and esters of 4-demethylepipodophyllotoxin” (2007) are described below.

Common to all, as to assay type: functional
The subject of test [1] is P388. Kind of test: Growth inhibition of Mus musculus (mouse) P388 cells at 10^-6 mol/l after 72 hr by MTT assay. The conditions noted are these: P388, 72 h, read-out: GI. A general note: Tetrazolium dyes change colour on reduction, which living cells bring about.
Test [2] relates to A549. Description: Growth inhibition of Homo sapiens (human) A549 cells at 10^-8 mol/l after 72 hr by MTT assay. The conditions noted are these: A549, 72 h, read-out: GI.
In test [3] the test system is P388. Description: Growth inhibition of Mus musculus (mouse) P388 cells at 10^-7 mol/l after 72 hr by MTT assay. The conditions noted are these: P388, 72 h, read-out: GI.
Test [4] deals with A549. Description: Growth inhibition of Homo sapiens (human) A549 cells at 10^-7 mol/l after 72 hr by MTT assay. As to conditions: A549, 72 h, read-out: GI.
Test [5] concerns P388. Kind of test: Growth inhibition of Mus musculus (mouse) P388 cells at 10^-4 mol/l after 72 hr by MTT assay. As to conditions: P388, 72 h, read-out: GI.
The test system of test [6] is A549. Description: Growth inhibition of Homo sapiens (human) A549 cells at 10^-5 mol/l after 72 hr by MTT assay. The conditions noted are these: A549, 72 h, read-out: GI.
For test [7], the system named is P388. Kind of test: Growth inhibition of Mus musculus (mouse) P388 cells at 10^-8 mol/l after 72 hr by MTT assay. The conditions noted are these: P388, 72 h, read-out: GI.
Test [8] deals with A549. Description: Growth inhibition of Homo sapiens (human) A549 cells at 10^-6 mol/l after 72 hr by MTT assay. The conditions noted are these: A549, 72 h, read-out: GI.
Test [9] has as its system P388. Kind of test: Growth inhibition of Mus musculus (mouse) P388 cells at 10^-5 mol/l after 72 hr by MTT assay. The conditions noted are these: P388, 72 h, read-out: GI.
The subject of test [10] is A549. Description: Growth inhibition of Homo sapiens (human) A549 cells at 10^-4 mol/l after 72 hr by MTT assay. As to conditions: A549, 72 h, read-out: GI.

On to `COc1cc([C@@H]2c3cc4c(cc3[C@@H](OC(=O)c3ccncc3)[C@H]3COC(=O)[C@H]23)OCO4)cc(OC)c1O` [4-O-DEMETHYLEPIPODOPHYLLOTOXINYL-ISONICOTINATE], for which the inhibition of growth at 1 µM worked out at 76.5% in [1] and 66.4% in test [8]. In addition, the values for the inhibition of growth at 0.01 µM in test [2] and in [7] were 54% and 19.8%, respectively. In addition, the inhibition of growth at 0.1 µM is 53.5% in test [3] and 66.1% in test [4]. The inhibition of growth at 100 µM in test [5] was determined as 100%; in test [10], 95.1%. The inhibition of growth at 10 µM was found to be 67.8% in [6] and 86.9% in test [9].
For `COc1cc([C@@H]2c3cc4c(cc3[C@@H](OC(=O)c3cccnc3Cl)[C@H]3COC(=O)[C@H]23)OCO4)cc(OC)c1O` [4-O-DEMETHYLEPIPODOPHYLLOTOXINYL-2'-CHLORONICOTINATE], the inhibition of growth at 1 µM was 72.3% in test [1] and 69.8% in [8]. In addition, the inhibition of growth at 0.01 µM in test [2] came to 56.6%; in test [7], 9.1%. The inhibition of growth at 0.1 µM in [3] is 12.8%; in test [4], 62.5%. The inhibition of growth at 100 µM in test [5] came out at 100%; in test [10] it was 92.5%. Moreover, the inhibition of growth at 10 µM came to 78.1% in test [6] and 84.7% in test [9].
For `COc1cc([C@@H]2c3cc4c(cc3[C@@H](OC(=O)c3ccc(Cl)nc3)[C@H]3COC(=O)[C@H]23)OCO4)cc(OC)c1O` [4-O-DEMETHYLEPIPODOPHYLLOTOXINYL-6'-CHLORONICOTINATE], the inhibition of growth at 1 µM in test [1] is 73.4%; in test [8], 72.5%. Further, the values for the inhibition of growth at 0.01 µM in [2] and in test [7] were 59.3% and 20.2%, respectively. For the same compound, the results for the inhibition of growth at 0.1 µM in test [3] and in test [4] were 28.4% and 70.7%, respectively. Moreover, the figures for the inhibition of growth at 100 µM in test [5] and in test [10] were 100% and 85.4%, respectively. For the same compound, the inhibition of growth at 10 µM in test [6] is 93.9%; in test [9], 81.1%.
With `COc1cc([C@@H]2c3cc4c(cc3[C@H](OC(=O)c3cccnc3Cl)[C@H]3COC(=O)[C@H]23)OCO4)cc(OC)c1OC` [4-O-PODOPHYLLOTOXINYL-2'-CHLORONICOTINATE], the results for the inhibition of growth at 1 µM in test [1] and in test [8] were 85% and 81.3%, respectively. In addition, the inhibition of growth at 0.01 µM stood at 79.5% in test [2] and 80.6% in [7]. Moreover, the inhibition of growth at 0.1 µM in test [3] was determined as 84.7%; in test [4] it was 80.4%. Besides, the inhibition of growth at 100 µM in [5] was determined as 87.3%; in test [10], 86.6%. For the same compound, the inhibition of growth at 10 µM in test [6] worked out at 82.5%; in [9], 85.8%.
On to `COc1cc([C@@H]2c3cc4c(cc3[C@@H](OC(=O)c3cncc(Br)c3)[C@H]3COC(=O)[C@H]23)OCO4)cc(OC)c1O` [4-O-DEMETHYLEPIPODOPHYLLOTOXINYL-5'-BROMONICOTINATE], for which the inhibition of growth at 1 µM is 66.1% in [1] and 78.4% in test [8]. The inhibition of growth at 0.01 µM in test [2] stood at 71%; in test [7], 2%. For the same compound, the inhibition of growth at 0.1 µM in [3] worked out at 63.5%; in test [4], 74.6%. Besides, the inhibition of growth at 100 µM was determined as 100% in test [5] and 87.3% in [10]. Moreover, the values for the inhibition of growth at 10 µM in test [6] and in test [9] were 82% and 87.4%, respectively.
For `COc1cc([C@@H]2c3cc4c(cc3[C@@H](O[C@@H]3O[C@@H]5CO[C@@H](C)O[C@H]5[C@H](O)[C@H]3O)[C@H]3COC(=O)[C@H]23)OCO4)cc(OC)c1O` [ETOPOSIDE], the values for the inhibition of growth at 1 µM in test [1] and in test [8] were 25.5% and 45%, respectively. Besides, the inhibition of growth at 0.01 µM in test [2] is 0%; in test [7], 1.8%. Also, the inhibition of growth at 0.1 µM in test [3] is 6%; in test [4] it was 0%. In addition, the values for the inhibition of growth at 100 µM in test [5] and in [10] were 99.2% and 97.5%, respectively. Also, the results for the inhibition of growth at 10 µM in test [6] and in test [9] were 50.7% and 70.6%, respectively.
On to `COc1cc([C@@H]2c3cc4c(cc3[C@H](OC(=O)c3ccc(Cl)nc3)[C@H]3COC(=O)[C@H]23)OCO4)cc(OC)c1OC` [4-O-PODOPHYLLOTOXINYL-6'-CHLORONICOTINATE], for which the results for the inhibition of growth at 1 µM in test [1] and in test [8] were 85% and 85.9%, respectively. The values for the inhibition of growth at 0.01 µM in test [2] and in test [7] were 81.5% and 80.1%, respectively. In addition, the results for the inhibition of growth at 0.1 µM in [3] and in test [4] were 84.3% and 83%, respectively. Further, the figures for the inhibition of growth at 100 µM in [5] and in [10] were 92.1% and 87.9%, respectively. In addition, the values for the inhibition of growth at 10 µM in [6] and in test [9] were 87% and 88.3%, respectively.
With `COc1cc([C@@H]2c3cc4c(cc3[C@H](OC(=O)c3cncc(Br)c3)[C@H]3COC(=O)[C@H]23)OCO4)cc(OC)c1OC` [4-O-PODOPHYLLOTOXINYL-5'-BROMONICOTINATE], the inhibition of growth at 1 µM in test [1] stood at 85%; in test [8], 82.7%. In addition, the inhibition of growth at 0.01 µM amounted to 77.3% in test [2] and 80.6% in test [7]. In addition, the figures for the inhibition of growth at 0.1 µM in test [3] and in test [4] were 82.8% and 80.9%, respectively. Further, the inhibition of growth at 100 µM in [5] turned out to be 97.7%; in test [10], 91.1%. Moreover, the inhibition of growth at 10 µM was found to be 84.7% in test [6] and 87.4% in test [9].
Consider `COc1cc([C@@H]2c3cc4c(cc3[C@@H](OC(=O)c3ccccn3)[C@H]3COC(=O)[C@H]23)OCO4)cc(OC)c1O` [4-O-DEMETHYLEPIPODOPHYLLOTOXINYL-PICOLINATE], for which the inhibition of growth at 1 µM in test [1] amounted to 73.5%; in test [8], 73.7%. Besides, the inhibition of growth at 0.01 µM in test [2] amounted to 53.7%; in [7], 39.7%. The inhibition of growth at 0.1 µM in test [3] worked out at 68%; in test [4], 56%. For the same compound, the inhibition of growth at 100 µM amounted to 100% in [5] and 91.6% in test [10]. The inhibition of growth at 10 µM in [6] is 78.8%; in test [9], 88.6%.
In the case of `COc1cc([C@@H]2c3cc4c(cc3[C@H](OC(=O)c3ccccn3)[C@H]3COC(=O)[C@H]23)OCO4)cc(OC)c1OC` [4-O-PODOPHYLLOTOXINYL-PICOLINATE], the values for the inhibition of growth at 1 µM in test [1] and in test [8] were 86% and 82.3%, respectively. The inhibition of growth at 0.01 µM worked out at 81.4% in test [2] and 85.4% in test [7]. Moreover, the inhibition of growth at 0.1 µM in test [3] was 85.5%; in [4] it was 81.8%. Further, the values for the inhibition of growth at 100 µM in [5] and in test [10] were 87.7% and 89.2%, respectively. In addition, the inhibition of growth at 10 µM in test [6] amounted to 84%; in [9], 87%.
`COc1cc([C@@H]2c3cc4c(cc3[C@H](OC(=O)c3cccnc3)[C@H]3COC(=O)[C@H]23)OCO4)cc(OC)c1OC` [4-O-PODOPHYLLOTOXINYL-NICOTINATE]: the values for the inhibition of growth at 1 µM in [1] and in test [8] were 84.1% and 82.8%, respectively. In addition, the inhibition of growth at 0.01 µM in test [2] was 81%; in test [7], 83.4%. For the same compound, the inhibition of growth at 0.1 µM in test [3] was 83.8%; in test [4], 82.2%. For the same compound, the inhibition of growth at 100 µM in test [5] and in test [10] was 87.5% each time. Moreover, the values for the inhibition of growth at 10 µM in [6] and in test [9] were 84.9% and 84.8%, respectively.
Consider `COc1cc([C@@H]2c3cc4c(cc3[C@@H](OC(=O)c3cccnc3)[C@H]3COC(=O)[C@H]23)OCO4)cc(OC)c1O` [4-O-DEMETHYLEPIPODOPHYLLOTOXINYL-NICOTINATE], for which the figures for the inhibition of growth at 1 µM in test [1] and in [8] were 72.1% and 74%, respectively. The inhibition of growth at 0.01 µM in [2] came out at 71.9%; in [7] it was 4.4%. Further, the inhibition of growth at 0.1 µM was determined as 71.4% in test [3] and 72.6% in test [4]. Besides, the inhibition of growth at 100 µM was determined as 100% in test [5] and 91.4% in [10]. For the same compound, the inhibition of growth at 10 µM in test [6] came to 79.9%; in test [9] it was 87.9%.
`COc1cc([C@@H]2c3cc4c(cc3[C@H](OC(=O)c3ccncc3)[C@H]3COC(=O)[C@H]23)OCO4)cc(OC)c1OC` [4-O-PODOPHYLLOTOXINYL-ISONICOTINATE]: the inhibition of growth at 1 µM in [1] amounted to 84.8%; in test [8], 82.6%. For the same compound, the inhibition of growth at 0.01 µM in test [2] amounted to 81.4%; in test [7], 83.8%. Further, the inhibition of growth at 0.1 µM in test [3] is 84.8%; in test [4], 81.8%. Further, the figures for the inhibition of growth at 100 µM in test [5] and in test [10] were 89% and 89.2%, respectively. Also, the inhibition of growth at 10 µM in test [6] turned out to be 84.4%; in test [9] it was 85.1%.
